Assay results published in ChEMBL document CHEMBL1201861, “Genomics of Drug Sensitity in Cancer screening data, Wellcome Trust Sanger Institute”.

Experiments:
Assay in all cases: cells
[1] = test system: COLO-829; format: functional, cell-based, Homo sapiens; conditions: Homo sapiens, COLO-829
Description: SANGER: Inhibition of human COLO-829 cell growth in a cell viability assay.

[2] = test system: CTV-1; format: functional, cell-based; conditions: Homo sapiens;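 note: growth inhibition of the cell line, read out with a cell viability assay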
Description: SANGER: Inhibition of human CTV-1 cell growth in a cell viability assay.

[3] = test system: Ca-Ski; format: functional, cell-based; conditions: Homo sapiens;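 note: cell viability assay measuring inhibition of Ca-Ski cell growth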
Description: SANGER: Inhibition of human Ca-Ski cell growth in a cell viability assay.

[4] = test system: Calu-3; format: functional, cell-based, Homo sapiens; conditions: Homo sapiens, Calu-3;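 note: growth inhibition of human Calu-3 cells, determined with a cell viability assay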
Description: SANGER: Inhibition of human Calu-3 cell growth in a cell viability assay.

[5] = test system: DBTRG-05MG; format: functional, cell-based, Homo sapiens; conditions: Homo sapiens, DBTRG-05MG;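 note: cell viability assay measuring growth inhibition of human DBTRG-05MG cells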
Description: SANGER: Inhibition of human DBTRG-05MG cell growth in a cell viability assay.

[6] = test system: DoTc2-4510; format: functional, cell-based, Homo sapiens; conditions: Homo sapiens, DoTc2-4510
[7] = test system: GR-ST; format: functional, cell-based; conditions: Homo sapiens
Description: SANGER: Inhibition of human GR-ST cell growth in a cell viability assay.

[8] = test system: HCE-4; format: functional, cell-based, Homo sapiens; conditions: Homo sapiens, HCE-4;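 note: cell viability assay measuring inhibition of growth in the human HCE-4 cell line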
Description: SANGER: Inhibition of human HCE-4 cell growth in a cell viability assay.

[9] = test system: HT-29; format: functional, cell-based, Homo sapiens; conditions: Homo sapiens, HT-29;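 note: growth inhibition of human HT-29 cells, read out by a cell viability assay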
Description: SANGER: Inhibition of human HT-29 cell growth in a cell viability assay.

[10] = test system: HTC-C3; format: functional, cell-based, Homo sapiens; conditions: Homo sapiens, HTC-C3;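 note: inhibition of cell growth, read out with a cell viability assay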
Description: SANGER: Inhibition of human HTC-C3 cell growth in a cell viability assay.

[11] = test system: K562; format: functional, cell-based; conditions: Homo sapiens
Description: SANGER: Inhibition of human K-562 cell growth in a cell viability assay.

[12] = test system: KARPAS-45; format: functional, cell-based; conditions: Homo sapiens;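 note: inhibition of cell line growth, read out through a viability assay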
Description: SANGER: Inhibition of human KARPAS-45 cell growth in a cell viability assay.

[13] = test system: KE-37; format: functional, cell-based; conditions: Homo sapiens;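 note: growth inhibition of KE-37 cells, read out with a cell viability assay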
[14] = test system: KU812 cell line; format: functional, cell-based; conditions: Homo sapiens;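 note: growth inhibition of KU812 cells, read out with a cell viability assay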
Description: SANGER: Inhibition of human KU812 cell growth in a cell viability assay.

[15] = test system: LB2241-RCC; format: functional, cell-based, Homo sapiens; conditions: Homo sapiens, LB2241-RCC;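 note: cell viability assay measuring how strongly the cultured human renal carcinoma line is prevented from growing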
Description: SANGER: Inhibition of human LB2241-RCC cell growth in a cell viability assay.

[16] = test system: LN-405; format: functional, cell-based, Homo sapiens; conditions: Homo sapiens, LN-405
Description: SANGER: Inhibition of human LN-405 cell growth in a cell viability assay.

[17] = test system: M059J; format: functional, cell-based, Homo sapiens; conditions: Homo sapiens, M059J;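 note: growth inhibition of M059J cells, read out with a cell viability assay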
Description: SANGER: Inhibition of human M059J cell growth in a cell viability assay.

[18] = test system: MC-IXC; format: functional, cell-based, Homo sapiens; conditions: Homo sapiens, MC-IXC;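 note: growth inhibition of MC-IXC cells, read out with a cell viability assay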
Description: SANGER: Inhibition of human MC-IXC cell growth in a cell viability assay.

[19] = test system: MHH-NB-11; format: functional, cell-based, Homo sapiens; conditions: Homo sapiens, MHH-NB-11;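 note: growth inhibition of human MHH-NB-11 cells, read out by a cell viability assay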
Description: SANGER: Inhibition of human MHH-NB-11 cell growth in a cell viability assay.

[20] = test system: MLMA; format: functional, cell-based, Homo sapiens; conditions: Homo sapiens, MLMA;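 note: growth inhibition of MLMA cells (human), determined through a cell viability readout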
Description: SANGER: Inhibition of human MLMA cell growth in a cell viability assay.

[21] = test system: MPP-89; format: functional, cell-based, Homo sapiens; conditions: Homo sapiens, MPP-89;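 note: growth inhibition of human MPP-89 cells, read out with a cell viability assay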
Description: SANGER: Inhibition of human MPP-89 cell growth in a cell viability assay.

[22] = test system: MZ1-PC; format: functional, cell-based, Homo sapiens; conditions: Homo sapiens, MZ1-PC;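 note: cell viability assay measuring growth inhibition of human MZ1-PC cells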
Description: SANGER: Inhibition of human MZ1-PC cell growth in a cell viability assay.

[23] = test system: NCI-H1792; format: functional, cell-based, Homo sapiens; conditions: Homo sapiens, NCI-H1792;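 note: growth inhibition of human NCI-H1792 cells, read out as cell viability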
Description: SANGER: Inhibition of human NCI-H1792 cell growth in a cell viability assay.

[24] = test system: NCI-H23; format: functional, cell-based, Homo sapiens; conditions: Homo sapiens, NCI-H23;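 note: cell viability assay measuring growth inhibition of NCI-H23 cells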
[25] = test system: NCI-H2452; format: functional, cell-based, Homo sapiens; conditions: Homo sapiens, NCI-H2452;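 note: growth inhibition of NCI-H2452 cells, read out with a cell viability assay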
Description: SANGER: Inhibition of human NCI-H2452 cell growth in a cell viability assay.

[26] = test system: NCI-H650; format: functional, cell-based, Homo sapiens; conditions: Homo sapiens, NCI-H650;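 note: growth inhibition of NCI-H650 cells, read out by a viability assay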
Description: SANGER: Inhibition of human NCI-H650 cell growth in a cell viability assay.

[27] = test system: NH-12; format: functional, cell-based, Homo sapiens; conditions: Homo sapiens, NH-12;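 note: growth inhibition of NH-12 cells, read out with a cell viability assay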
Description: SANGER: Inhibition of human NH-12 cell growth in a cell viability assay.

[28] = test system: NMC-G1; format: functional, cell-based, Homo sapiens; conditions: Homo sapiens, NMC-G1;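 note: growth inhibition of the NMC-G1 cell line, measured with a cell viability read-out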
Description: SANGER: Inhibition of human NMC-G1 cell growth in a cell viability assay.

[29] = test system: OE33; format: functional, cell-based, Homo sapiens; conditions: Homo sapiens, OE33;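 note: growth inhibition of human OE33 cells, measured by a cell viability assay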
Description: SANGER: Inhibition of human OE33 cell growth in a cell viability assay.

[30] = test system: PC-14; format: functional, cell-based, Homo sapiens; conditions: Homo sapiens, PC-14;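 note: cell viability assay measuring inhibition of PC-14 cell growth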
Description: SANGER: Inhibition of human PC-14 cell growth in a cell viability assay.

[31] = test system: SF-295; format: functional, cell-based, Homo sapiens; conditions: Homo sapiens, SF-295; read-out: IC50;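 note: growth inhibition of SF-295 cells, read out with a cell viability assay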
Description: SANGER: Inhibition of human SF295 cell growth in a cell viability assay.

[32] = test system: SK-LU-1; format: functional, cell-based, Homo sapiens; conditions: Homo sapiens, SK-LU-1;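 note: cell viability assay measuring growth inhibition of human SK-LU-1 cells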
Description: SANGER: Inhibition of human SK-LU-1 cell growth in a cell viability assay.

[33] = test system: SK-PN-DW; format: functional, cell-based; conditions: Homo sapiens;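 note: growth inhibition measured with a viability assay on these cells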
Description: SANGER: Inhibition of human SK-PN-DW cell growth in a cell viability assay.

[34] = test system: SN12C; format: functional, cell-based, Homo sapiens; conditions: Homo sapiens, SN12C;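 note: growth inhibition of human SN12C cells, measured by a cell viability assay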
Description: SANGER: Inhibition of human SN12C cell growth in a cell viability assay.

[35] = test system: SNU-C2B; format: functional, cell-based, Homo sapiens; conditions: Homo sapiens, SNU-C2B;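 note: cell viability readout used to measure compound-driven suppression of SNU-C2B cell proliferation, IC50 marking half-maximal growth inhibition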
Description: SANGER: Inhibition of human SNU-C2B cell growth in a cell viability assay.

[36] = test system: SW13; format: functional, cell-based, Homo sapiens; conditions: Homo sapiens, SW13;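 note: IC50 is inhibition of SW13 cell growth, read out with a cell viability assay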
Description: SANGER: Inhibition of human SW13 cell growth in a cell viability assay.

[37] = test system: SW684; format: functional, cell-based, Homo sapiens; conditions: Homo sapiens, SW684;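 note: growth inhibition of human SW684 cells, measured by a cell viability assay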
Description: SANGER: Inhibition of human SW684 cell growth in a cell viability assay.

[38] = test system: SW837; format: functional, cell-based, Homo sapiens; conditions: Homo sapiens, SW837;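 note: growth inhibition of SW837 cells, determined with a cell viability assay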
Description: SANGER: Inhibition of human SW837 cell growth in a cell viability assay.

[39] = test system: T98G; format: functional, cell-based, Homo sapiens; conditions: Homo sapiens, T98G;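 note: growth inhibition of T98G cells, read out by a cell viability assay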
Description: SANGER: Inhibition of human T98G cell growth in a cell viability assay.

[40] = test system: TCC-SUP; format: functional, cell-based, Homo sapiens; conditions: Homo sapiens, TCC-SUP;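 note: growth inhibition of TCC-SUP cells, read out with a cell viability assay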
Description: SANGER: Inhibition of human TCCSUP cell growth in a cell viability assay.

[41] = test system: TE-1; format: functional, cell-based, Homo sapiens; conditions: Homo sapiens, TE-1;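 note: growth inhibition of the human TE-1 cell line, read out with a cell viability assay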
Description: SANGER: Inhibition of human TE-1 cell growth in a cell viability assay.

[42] = test system: 647-V; format: functional, cell-based, Homo sapiens; conditions: Homo sapiens, 647-V;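 note: growth inhibition of 647-V cells, read out with a cell viability assay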
Description: SANGER: Inhibition of human 647-V cell growth in a cell viability assay.

[43] = test system: 8305C; format: functional, cell-based, Homo sapiens; conditions: Homo sapiens, 8305C
Description: SANGER: Inhibition of human 8305C cell growth in a cell viability assay.

[44] = test system: 8505C; format: functional, cell-based, Homo sapiens; conditions: Homo sapiens, 8505C
Description: SANGER: Inhibition of human 8505C cell growth in a cell viability assay.

[45] = test system: A2058; format: functional, cell-based; conditions: Homo sapiens;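 note: reduction of A2058 cell growth, read out with a viability assay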
Description: SANGER: Inhibition of human A2058 cell growth in a cell viability assay.

[46] = test system: BHT-101; format: functional, cell-based, Homo sapiens; conditions: Homo sapiens, BHT-101
Description: SANGER: Inhibition of human BHT-101 cell growth in a cell viability assay.

[47] = test system: CAL-39; format: functional, cell-based, Homo sapiens; conditions: Homo sapiens, CAL-39;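 note: cell viability assay measuring growth inhibition of CAL-39 cells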
Description: SANGER: Inhibition of human CAL-39 cell growth in a cell viability assay.

[48] = test system: CAL-54; format: functional, cell-based, Homo sapiens; conditions: Homo sapiens, CAL-54;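 note: growth inhibition of CAL-54 cells, read out by a viability measurement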
Description: SANGER: Inhibition of human CAL-54 cell growth in a cell viability assay.

[49] = test system: TGW; format: functional, cell-based; conditions: Homo sapiens;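 note: growth inhibition of human TGW cells, read out with a cell viability assay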
Description: SANGER: Inhibition of human TGW cell growth in a cell viability assay.

[50] = test system: TK-10; format: functional, cell-based, Homo sapiens; conditions: Homo sapiens, TK-10;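 note: growth inhibition of TK-10 cells, read out in a cell viability assay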
Description: SANGER: Inhibition of human TK10 cell growth in a cell viability assay.

[51] = test system: KMOE-2; format: functional, cell-based; conditions: Homo sapiens;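 note: growth inhibition of human KMOE-2 cells, read out with a cell viability assay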
Description: SANGER: Inhibition of human KMOE-2 cell growth in a cell viability assay.

With `COc1cc(F)c(F)c(Nc2ccc(I)cc2F)c1NS(=O)(=O)C1(CC(O)CO)CC1` (stereo not drawn) the IC50 [1] was 1730 nM, the IC50 [2] was 4960 nM and the IC50 [3] was over 5000 nM. It also gave an IC50 [4] of 4900 nM, an IC50 [5] of over 5000 nM and an IC50 [6] of over 5000 nM. It also gave an IC50 [7] of over 5000 nM, an IC50 [8] of over 5000 nM and an IC50 [9] of 182 nM. For the same molecule, the IC50 [10] was 122 nM, the IC50 [11] was over 5000 nM and the IC50 [12] was 1140 nM. It also gave an IC50 [13] of over 5000 nM, an IC50 [14] of 239 nM and an IC50 [15] of 3300 nM. It also gave an IC50 [16] of over 5000 nM, an IC50 [17] of over 5000 nM and an IC50 [18] of over 5000 nM. It also gave an IC50 [19] of 1060 nM, an IC50 [20] of over 5000 nM and an IC50 [21] of over 5000 nM. The IC50 [22] was 1340 nM, the IC50 [23] was 2450 nM and the IC50 [24] was over 5000 nM. The IC50 [25] was over 5000 nM, the IC50 [26] was over 5000 nM and the IC50 [27] was 1200 nM. The IC50 [28] was over 5000 nM, the IC50 [29] was over 5000 nM and the IC50 [30] was 4170 nM. It also gave an IC50 [31] of over 5000 nM, an IC50 [32] of over 5000 nM and an IC50 [33] of over 5000 nM. It also gave an IC50 [34] of over 5000 nM, an IC50 [35] of over 5000 nM and an IC50 [36] of 4330 nM. For the same molecule, the IC50 [37] was over 5000 nM, the IC50 [38] was over 5000 nM and the IC50 [39] was over 5000 nM. For the same molecule, the IC50 [40] was over 5000 nM, the IC50 [41] was over 5000 nM and the IC50 [42] was over 5000 nM. For the same molecule, the IC50 [43] was 1290 nM, the IC50 [44] was 2580 nM and the IC50 [45] was 3800 nM. It also gave an IC50 [46] of 106 nM, an IC50 [47] of 415 nM and an IC50 [48] of over 5000 nM. The IC50 [49] was over 5000 nM and the IC50 [50] was 2210 nM.
Work on `CN1CCN(CCOc2cc(OC3CCOCC3)c3c(Nc4c(Cl)ccc5c4OCO5)ncnc3c2)CC1` [SARACATINIB] yielded an IC50 [1] of over 2000 nM, an IC50 [2] of 61.4 nM and an IC50 [7] of over 2000 nM. The IC50 [8] was over 2000 nM, the IC50 [11] was 450 nM and the IC50 [12] was over 2000 nM. For the same molecule, the IC50 [13] was over 2000 nM, the IC50 [51] was over 2000 nM and the IC50 [14] was over 2000 nM. For the same molecule, the IC50 [15] was over 2000 nM, the IC50 [19] was over 2000 nM and the IC50 [20] was over 2000 nM. It also gave an IC50 [21] of over 2000 nM, an IC50 [22] of over 2000 nM and an IC50 [24] of over 2000 nM. It also gave an IC50 [27] of over 2000 nM, an IC50 [28] of over 2000 nM and an IC50 [33] of over 2000 nM. It also gave an IC50 [35] of over 2000 nM, an IC50 [37] of over 2000 nM and an IC50 [41] of 1440 nM. For the same molecule, the IC50 [49] was over 2000 nM and the IC50 [50] was 907 nM.
With `COc1ccc(-c2ccc3c(N4CCOC[C@@H]4C)nc(N4CCOC[C@@H]4C)nc3n2)cc1CO` [AZD-8055] the IC50 [1] was over 2000 nM, the IC50 [2] was 86.4 nM and the IC50 [3] was over 2000 nM. For the same molecule, the IC50 [4] was 1650 nM, the IC50 [5] was over 2000 nM and the IC50 [6] was over 2000 nM. For the same molecule, the IC50 [7] was 530 nM, the IC50 [8] was over 2000 nM and the IC50 [9] was over 2000 nM. The IC50 [10] was 732 nM, the IC50 [11] was over 2000 nM and the IC50 [12] was 33.7 nM. The IC50 [13] was 432 nM, the IC50 [14] was 80.4 nM and the IC50 [15] was 302 nM. It also gave an IC50 [16] of 1280 nM, an IC50 [17] of over 2000 nM and an IC50 [18] of 727 nM. It also gave an IC50 [19] of over 2000 nM, an IC50 [20] of over 2000 nM and an IC50 [21] of 469 nM. The IC50 [22] was over 2000 nM, the IC50 [23] was 971 nM and the IC50 [24] was 1560 nM. The IC50 [25] was 619 nM, the IC50 [26] was 791 nM and the IC50 [27] was 1110 nM. The IC50 [28] was 1310 nM, the IC50 [29] was 799 nM and the IC50 [30] was 590 nM. It also gave an IC50 [31] of 685 nM, an IC50 [32] of 392 nM and an IC50 [33] of 1760 nM. The IC50 [34] was 807 nM, the IC50 [35] was over 2000 nM and the IC50 [36] was 984 nM. It also gave an IC50 [37] of 1970 nM, an IC50 [38] of over 2000 nM and an IC50 [39] of 1010 nM. The IC50 [40] was 1470 nM, the IC50 [41] was over 2000 nM and the IC50 [42] was 1540 nM. The IC50 [43] was 708 nM, the IC50 [44] was 1290 nM and the IC50 [45] was 974 nM. It also gave an IC50 [46] of 408 nM, an IC50 [47] of 523 nM and an IC50 [48] of 1830 nM. It also gave an IC50 [49] of over 2000 nM and an IC50 [50] of 1360 nM.
